# Assays:
# [1] = biological target: T1, MRP2 (Homo sapiens, UniProt Q92887); assay: CDFDA transport assay; assay type: cell-based; conditions: 10 μM CDFDA in upper layer flow path, 3 hours, co-culturing with HuCCT1 cells versus PHH only
# T1 construct: endogenous in cells; host or cells: primary human hepatocytes (PHH), alone or co-cultured with HuCCT1 cells, in the microfluidic device
# Procedure: 10 μM of 5(6)-carboxy-2′,7′-dichlorofluorescein diacetate (CDFDA) was added to the upper layer flow path. After 3 hours, the culture supernatant from the lower layer flow path was recovered. The fluorescence intensity of 5(6)-carboxy-2′,7′-dichlorofluorescein (CDF) in the recovered culture supernatant, which is a metabolite of CDFDA, was measured.
# Subsequently, 5(6)-carboxy-2′,7′-dichlorofluorescein diacetate (CDFDA) was added to the upper layer flow path of the intrahepatic bile duct chip, and after 3 hours, the fluorescence of the culture medium in the lower layer flow path was measured. In living cells, CDFDA is hydrolyzed to 5(6)-carboxy-2′,7′-dichlorofluorescein (CDF). CDF is a substrate of MRP2, which is a transporter. Therefore, the CDF transported to the lower layer flow path can be quantified by measuring the fluorescence intensity.
# FIG. 13 is a graph showing results of measuring the fluorescence intensity.
# [2] = Drug absorption in microfluidic device without PHH (LC-MS/MS); assay type: physicochemical; conditions: for concentration during the observation period: 1 to 4 hours, microfluidic device; for Drug absorption rate: Microfluidic device/Polystyrene plate; for Drug absorption rate / concentration as % of initial concentration: without PHH; for absorption in the microfluidic device: PDMS device without PHH; for concentration as % of initial concentration: 1 hour after the injection into the microfluidic device
# Procedure: A culture medium containing MDZ, DIC, PHE, BUF, or MPHT was added to a microfluidic device or a polystyrene plate. Subsequently, 1, 2, and 4 hours after the addition of the drugs, the amounts of these drugs were quantified with LC-MS/MS.
# A culture medium containing APAP (a CYP1A2 metabolite), 1OH-MDZ (a CYP3A4 metabolite), 4OH-DIC (a CYP2C9 metabolite), 4OH-MPHT (a CYP2C19 metabolite), or 1OH-BUF (a CYP2D6 metabolite) was added to a microfluidic device or a polystyrene plate. Subsequently, 1, 2, and 4 hours after the addition of the drugs, the amounts of these drugs were quantified with LC-MS/MS.
# Subsequently, it was examined whether the absorption of the drugs and metabolites could be predicted by the relative physicochemical characteristics between the microfluidic device and the polystyrene plate. The drug absorption rate between the microfluidic device and the polystyrene plate was calculated. Subsequently, a correlation coefficient R^2 value between the drug absorption rate and the physicochemical characteristics (DiffCoef, M Log P, S+Log P, S+log D, MWt, and tPSA) of the drugs was calculated.
# [3] = system: CYP3A4; assay: Measurement of CYP activity using CYP substrates in PHH (MDZ to 1OH-MDZ); assay type: in vitro ADME, human
# Procedure: The LC-MS/MS analysis was carried out to measure the activity of CYP. Prior to a CYP substrate treatment, PHH was cultured in DMEM containing 10 mM HEPES for 30 minutes. Subsequently, the PHH was cultured in a culture medium containing 5 μM MDZ (the metabolite thereof is 1OH-MDZ), 50 μM MPHT (the metabolite thereof is 4OH-MPHT), 5 μM DIC (the metabolite thereof is 4OH-DIC), 10 μM BUF (the metabolite thereof is 1OH-BUF), or 50 μM PHE (the metabolite thereof is APAP). The supernatant was recovered 1, 2, and 4 hours after the treatment with the substrate. At the time of recovering the supernatant, an equal amount of a culture medium containing the substrate was added.
# The recovered supernatant was mixed with acetonitrile (FUJIFILM Wako Pure Chemical Corporation) containing an equal volume of 5 μM propranolol (internal standard). The specimen was filtered through a Cosmonice Filter W (Nacalai Tesque, Inc.) having a pore size of 0.45 μm, the supernatant was subsequently analyzed by LC-MS/MS, and the concentration of the metabolite was measured based on the standard curve. The LC-MS/MS analysis was carried out using LCMS-8040 (Shimadzu Corporation).
# Subsequently, the drug metabolic activities of the PHH cultured in the PDMS device and the PS plate were compared. First, PHH was treated with each of MDZ, DIC, PHE, BUF, and MPHT, which are substrates of CYP3A4, CYP2C9, CYP1A2, CYP2D6, and CYP2C19. Subsequently, after 1, 2, and 4 hours, the amounts of the metabolites (OH-MDZ, 4OH-DIC, APAP, 1OH-BUF, and 4OH-MPHT) generated in the culture medium were measured by LC-MS/MS.
# [4] = system: CYP3A; assay type: in vitro ADME, human
# Procedure: The supernatant was recovered 1, 2, and 4 hours after the treatment with the substrate. At the time of recovering the supernatant, an equal volume of a culture medium containing the substrate was added.
# A fraction (20 μL) of the recovered supernatant was mixed with 20 μL of Milli-Q water and 120 μL of acetonitrile containing […] 10 nM of an internal standard (fluvastatin, FUJIFILM Wako Pure Chemical Corporation). After centrifugation, 100 μL of the supernatant was analyzed by LC-MS/MS.
# Chromatography was carried out using a Nexera X2 LC system (Shimadzu Corporation), and quantification was carried out using QTRAP 5500+ (AB Sciex LLC).
# A mass spectrometer was set to an MRM mode and operated with an electrospray ionization source.
# [5] = system: PHH and the HuCCT1 cells of the intrahepatic bile duct chip; assay: Response to bile acid signaling in intrahepatic bile duct chip (quantitative RT-PCR); assay type: cell-based, human; conditions: 100 μM CDCA, 72 hours, versus DMSO
# Procedure: In addition, the response to bile acid signaling in PHH was examined. Chenodeoxycholic acid (CDCA) is one of the major bile acids. […] In addition, a specimen treated with dimethyl sulfoxide (DMSO) instead of CDCA was also prepared for comparison. Subsequently, the gene expression levels of BSEP, NTCP, and CYP7A1 were measured according to quantitative RT-PCR. […] In FIG. 9, the vertical axis indicates a relative value of the expression level of each gene in a case where the expression level in a case where DMSO has been treated is set to 1. […] All data are indicated as average value±standard deviation (n=3).
# [6] = system: FXR; assay: Change in bile acid signaling upon drug exposure in PHH (quantitative RT-PCR); conditions: 100 μM CDCA and 2.5 μM GW4046, 72 hours, PHH in microfluidic device or polystyrene plate
# Procedure: Subsequently, a change in bile acid signaling upon drug exposure was examined.
# Subsequently, the gene expression levels of BSEP and CYP7A1 were measured by quantitative RT-PCR.
# [7] = system: CYP1A2; assay: CYP induction test (quantitative RT-PCR) in PHH; assay type: cell-based, human; conditions: 50 μM omeprazole, 48 hours, versus DMSO
# Procedure: PHH was treated with 50 μM omeprazole, 500 μM phenobarbital, or 20 μM rifampicin (all of which are from FUJIFILM Wako Pure Chemical Corporation) for 48 hours. Each of these drugs is known to induce CYP1A2, 2B6, and 3A4. In order to measure the inducibility of CYP1A2, 2B6, and 3A4, the expression level of CYP was measured by quantitative RT-PCR. The expression level of the target gene was standardized with the expression level of GAPDH. The inducibility was calculated as a change in expression level in terms of folds in cells treated with DMSO.
# PHH was seeded in each of a microfluidic device and a polystyrene plate and cultured for 24 hours. Subsequently, the cultured PHH was treated with 50 μM omeprazole, 500 μM phenobarbital, or […] rifampicin for 48 hours. […] Subsequently, the expression level of each CYP gene was measured by quantitative RT-PCR. Cells treated with DMSO (final concentration: 0.1%) were used as a control.
# [8] = system: GFP-expressing HuCCT1 cells; assay: Formation of tubular bile duct-like structure in microfluidic device; assay type: cell-based, human; conditions: 10 ng/mL in culture medium, 4 days, lower layer flow path
# Procedure: GFP-expressing HuCCT1 cells were seeded in the lower layer flow path of the microfluidic device in the presence or absence of 10 ng/mL of DLL1 or DLL4, and after 4 days, a cross-sectional image of the microfluidic device was acquired.
# [9] = Measurement of active TGF-β1 in culture supernatant (ELISA), adsorption to culture vessel; conditions: 100 ng/mL TGF-β1, 48 hours
# Procedure: PHH was treated with 100 ng/mL of TGF-β1 for 48 hours. In order to quantify active TGF-β1 in the supernatant, the culture medium was recovered and analyzed according to the instruction manual using a TGF beta-1 Human ELISA Kit (BMS249-4, Thermo Fisher Scientific, Inc.). The amount of active TGF-β1 was calculated based on each standard.
# (§1) Subsequently, the cellular response of the PHH cultured in the microfluidic device and the polystyrene plate to a recombinant protein was examined. Specifically, PHH was treated with transforming growth factor-β1 (TGF-β1), which is one of the causative factors of hepatic fibrosis. The PHH was exposed to 100 ng/mL TGF-β1 for 48 hours. Subsequently, the amount of TGF-β1 in the cell culture supernatant was measured according to ELISA.
# FIG. 35 is a graph showing the results of ELISA. In FIG. 35, “top” indicates the results for the upper layer flow path, and “bottom” indicates the results for the lower layer flow path.
# [10] = system: PHH; assay: Fibrosis marker gene expression in PHH treated with TGF-β1 (quantitative RT-PCR); assay type: cell-based, human
# Procedure: as §1
# Subsequently, the gene expression levels of ACTA2, COL1A1, and TIMP1, which are fibrosis markers, were measured by quantitative RT-PCR.
# In FIG. 36, the vertical axis indicates a relative value in a case where the gene expression level in the cells (control) treated with phosphate buffered saline (PBS) is set to 1. […] The data is indicated as average value±standard deviation (n=3).
# Subsequently, the gene expression level of TGF-β type II receptor (TGFBR2) was measured. […] Subsequently, the gene expression level of TGFBR2 was measured by quantitative RT-PCR.
# [11] = microfluidic device versus polystyrene plate
# [12] = 100 ng/mL TGF-β1, 48 hours, microfluidic device or polystyrene plate, versus PBS
# T1 sequence (Q92887 whole entry): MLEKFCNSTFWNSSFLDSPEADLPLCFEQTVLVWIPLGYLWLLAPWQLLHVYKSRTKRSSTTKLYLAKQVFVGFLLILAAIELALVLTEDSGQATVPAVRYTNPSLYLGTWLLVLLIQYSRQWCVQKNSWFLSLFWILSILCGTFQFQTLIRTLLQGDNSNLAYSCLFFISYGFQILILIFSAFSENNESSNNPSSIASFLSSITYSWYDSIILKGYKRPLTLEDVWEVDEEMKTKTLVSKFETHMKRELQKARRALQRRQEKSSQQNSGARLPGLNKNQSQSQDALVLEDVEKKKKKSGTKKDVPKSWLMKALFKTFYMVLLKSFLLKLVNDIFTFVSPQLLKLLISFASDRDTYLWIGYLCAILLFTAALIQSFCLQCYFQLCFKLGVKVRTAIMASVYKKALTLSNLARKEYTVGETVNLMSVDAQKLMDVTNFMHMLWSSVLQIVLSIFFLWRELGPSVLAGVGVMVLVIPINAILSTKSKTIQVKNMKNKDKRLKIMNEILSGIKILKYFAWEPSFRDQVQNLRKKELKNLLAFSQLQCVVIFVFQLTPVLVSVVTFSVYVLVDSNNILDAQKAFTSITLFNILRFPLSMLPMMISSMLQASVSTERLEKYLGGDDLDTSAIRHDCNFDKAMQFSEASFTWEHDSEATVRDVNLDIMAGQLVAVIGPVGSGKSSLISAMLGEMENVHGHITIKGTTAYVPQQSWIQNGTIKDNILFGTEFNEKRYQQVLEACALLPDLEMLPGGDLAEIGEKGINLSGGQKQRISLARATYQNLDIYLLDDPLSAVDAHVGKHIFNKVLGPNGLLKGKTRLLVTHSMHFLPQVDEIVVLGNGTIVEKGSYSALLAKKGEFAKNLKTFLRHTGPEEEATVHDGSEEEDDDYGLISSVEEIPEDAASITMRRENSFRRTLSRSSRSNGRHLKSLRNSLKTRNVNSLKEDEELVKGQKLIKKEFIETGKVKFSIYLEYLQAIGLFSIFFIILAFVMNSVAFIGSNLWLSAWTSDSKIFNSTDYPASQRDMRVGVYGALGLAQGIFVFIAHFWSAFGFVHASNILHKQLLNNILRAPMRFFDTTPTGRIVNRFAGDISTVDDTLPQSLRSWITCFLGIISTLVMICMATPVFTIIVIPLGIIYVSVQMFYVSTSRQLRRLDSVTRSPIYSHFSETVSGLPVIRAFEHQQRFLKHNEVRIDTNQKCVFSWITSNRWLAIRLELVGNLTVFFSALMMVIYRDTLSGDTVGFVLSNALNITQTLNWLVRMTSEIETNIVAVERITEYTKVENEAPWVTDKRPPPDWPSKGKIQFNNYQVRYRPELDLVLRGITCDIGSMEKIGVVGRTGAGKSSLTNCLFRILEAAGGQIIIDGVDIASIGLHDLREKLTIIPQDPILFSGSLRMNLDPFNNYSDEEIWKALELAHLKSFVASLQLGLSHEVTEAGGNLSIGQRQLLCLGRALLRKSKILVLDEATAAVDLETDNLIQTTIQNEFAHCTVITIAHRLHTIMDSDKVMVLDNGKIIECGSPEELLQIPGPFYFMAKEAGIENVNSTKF
molecule,measurement,setting,value
"5(6)-carboxy-2′,7′-dichlorofluorescein [CDF]",amount of the CDF transported to the lower layer flow path,[1],increases
OCc1ncc2n1-c1ccc(Cl)cc1C(c1ccccc1F)=NC2 [1-hydroxymidazolam],concentration during the observation period,[2],constant
same,Drug absorption rate,[2],1.714
same,absorption in the microfluidic device,[2],also absorbed in the PDMS device
same,"formation rate of metabolite, microfluidic device versus polystyrene plate","[3]; PHH, 5 μM MDZ",similar
"CC(C)c1c(C(=O)Nc2ccccc2O)c(-c2ccccc2)c(-c2ccc(F)cc2)n1CCC(O)CC(O)CC(=O)O (stereo not shown) [2OH-ATV, 2-hydroxyatorvastatin]",formation of 2OH-ATV,"[4]; PHH, 1 μM ATV, 1, 2 and 4 hours",observed in a time-dependent manner
same,formation rate of 2OH-ATV in PHH cultured in the microfluidic device,[4]; [11],partially reduced
"CCc1cccc2cc(C(O)CNC(C)(C)C)oc12 (stereo not shown) [Bufuralol, bufuralol]",concentration during the observation period,[2],constant
same,concentration as % of initial concentration,[2],30%
same,Drug absorption rate,[2],3.327
same,absorption in the microfluidic device,[2],absorbed in the microfluidic device
"C[C@H](CCC(=O)O)[C@H]1CC[C@H]2[C@@H]3[C@H](O)C[C@@H]4C[C@H](O)CC[C@]4(C)[C@H]3CC[C@]12C [CDCA, chenodeoxycholic acid]",BSEP gene expression level,[5],increased
same,CYP7A1 gene expression level,[5],decreased
same,NTCP gene expression level,[5],increased
same,CYP7A1 gene expression level,[6],decreased only in the microfluidic device
"O=C(O)Cc1ccccc1Nc1c(Cl)cccc1Cl [Diclofenac, diclofenac]",Drug absorption rate,[2],1.043
CC(C)c1onc(-c2c(Cl)cccc2Cl)c1COc1ccc(/C=C/c2cccc(C(=O)O)c2)c(Cl)c1 [GW4046],BSEP gene expression level,[6],increased in both the PHH cultured in the microfluidic device and the PHH cultured on the polystyrene plate
"Cc1ncc2n1-c1ccc(Cl)cc1C(c1ccccc1F)=NC2 [Midazolam, midazolam]",concentration during the observation period,[2],constant
same,concentration as % of initial concentration,[2],9.5%
same,Drug absorption rate,[2],10.41
same,absorption in the microfluidic device,[2],absorbed in the microfluidic device
same,"amount of the metabolite, microfluidic device versus polystyrene plate","[3]; PHH, 5 μM MDZ",smaller
same,clearance (rate of drug metabolite formation divided by concentration of the drug in the culture medium),[3]; [11],no difference
"CCOc1ccc(NC(C)=O)cc1 [Phenacetin, phenacetin]",Drug absorption rate,[2],0.9569
CC[C@@]1(c2ccccc2)NC(=O)N(C)C1=O [S-mephenytoin],Drug absorption rate,[2],0.9897
CCCC(C(=O)OCCN(CC)CC)(c1ccccc1)c1ccccc1 [SKF-525A],formation of 2OH-ATV on treatment with pan-CYP inhibitor,"[4]; PHH, 100 μM SKF-525A, 1 μM ATV",significantly reduced
COc1ccc2[nH]c([S+]([O-])Cc3ncc(C)c(OC)c3C)nc2c1 (stereo not shown) [omeprazole],CYP1A2 expression level,[7],induced in both the microfluidic device and the polystyrene plate
"DLL4: recombinant human Delta Like Canonical Notch Ligand 4, lumenization factor",formation of the tubular bile duct-like structure,[8],accelerates the formation of the tubular bile duct-like structure
"TGF-β1: recombinant protein, one of the causative factors of hepatic fibrosis",adsorption of TGF-β1 to the microfluidic device,[9],has not allowed the adsorption
same,adsorption of TGF-β1 to the polystyrene plate,[9],allowed the adsorption
same,ACTA2 gene expression level,[10]; [12],increased
same,COL1A1 gene expression level,[10]; [12],increased
same,TIMP1 gene expression level,[10]; [12],increased
same,TGFBR2 gene expression level,"[10]; TGF-β1 treatment, PHH in microfluidic device and polystyrene plate",not changed
